In article PMC9110388, “Integrative structure determination reveals functional global flexibility for an ultra-multimodular arabinanase” (Communications Biology, 2022):

Target: T1, AbnA-WT (Geobacillus stearothermophilus, UniProt B3EYN2)
T1 sequence (B3EYN2 29-848): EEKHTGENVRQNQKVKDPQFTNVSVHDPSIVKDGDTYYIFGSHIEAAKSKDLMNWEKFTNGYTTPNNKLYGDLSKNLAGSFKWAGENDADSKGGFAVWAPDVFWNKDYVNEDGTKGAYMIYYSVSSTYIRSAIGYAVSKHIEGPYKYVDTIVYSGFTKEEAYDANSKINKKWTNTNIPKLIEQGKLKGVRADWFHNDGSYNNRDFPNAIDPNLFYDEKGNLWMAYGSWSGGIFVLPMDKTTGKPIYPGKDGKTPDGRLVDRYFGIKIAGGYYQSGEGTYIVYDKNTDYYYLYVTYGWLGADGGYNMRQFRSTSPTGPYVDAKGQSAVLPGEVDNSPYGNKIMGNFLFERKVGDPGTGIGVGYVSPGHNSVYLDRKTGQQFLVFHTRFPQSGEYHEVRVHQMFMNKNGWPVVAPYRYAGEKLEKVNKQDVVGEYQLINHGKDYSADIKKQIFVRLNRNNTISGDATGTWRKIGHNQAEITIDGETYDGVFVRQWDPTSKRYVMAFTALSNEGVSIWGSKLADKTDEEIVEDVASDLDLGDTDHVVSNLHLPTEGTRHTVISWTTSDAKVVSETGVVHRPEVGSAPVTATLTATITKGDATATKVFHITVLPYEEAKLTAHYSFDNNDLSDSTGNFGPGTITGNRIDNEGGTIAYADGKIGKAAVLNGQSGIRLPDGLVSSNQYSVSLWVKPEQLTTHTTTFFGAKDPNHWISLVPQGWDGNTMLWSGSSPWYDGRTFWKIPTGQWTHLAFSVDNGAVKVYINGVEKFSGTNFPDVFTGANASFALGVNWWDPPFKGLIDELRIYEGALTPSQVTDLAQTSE
Assay: X-ray crystal structure, soaked crystal, […] A
Format: binding
Settings: bound in Domain4 (CBM-like) cleft, not in the active site; 5 mM soak ~30 s; 70% occupancy

Structure (SMILES): OC[C@@H]1O[C@@H](OC[C@@H]2O[C@@H](OC[C@@H]3O[C@@H](OC[C@@H]4O[C@@H](OC[C@@H]5OC(O)[C@H](O)[C@H]5O)[C@H](O)[C@H]4O)[C@H](O)[C@H]3O)[C@H](O)[C@H]2O)[C@H](O)[C@H]1O (stereo partly shown) [A5, arabinopentaose]
- X-ray crystal structure, soaked crystal, 2.95 A: extra density was observed in Domain4, and this could be clearly modelled as an arabinopentaose molecule
